Measurements published in ChEMBL document CHEMBL1201862, “PubChem BioAssay data set” (2004).
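Growth conditions: 96-well plates. Treatment: test compound, 48 hours, 5 concentrations. Analysis: linear interpolation between bracketing concentrations; unreached endpoints set to highest concentration. The concentration for 50% growth inhibition is given as GI50.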 The source made the active and inactive calls. Rule as the data show it: active = GI50 up to about 1.1 µM and inactive = higher.

Legend:
Test in all cases: NCI-60 cell line screen, 48 h
[1] = test system: A549
[2] = test system: SK-OV-3
[3] = test system: HL-60
[4] = test system: OVCAR-3
[5] = test system: M14
[6] = test system: EKVX
[7] = test system: BT-549
[8] = test system: NCI-H522
[9] = test system: RPMI-8226
[10] = test system: CCRF-CEM
[11] = test system: SF-268
[12] = test system: MDA-MB-435
[13] = test system: NCI-H460
[14] = test system: OVCAR-5
[15] = test system: NCI-H23
[16] = test system: MDA-MB-231
[17] = test system: CAKI-1
[18] = test system: UO-31
[19] = test system: KM12
[20] = test system: RXF 393
[21] = test system: T47D
[22] = test system: NCI/ADR-RES
[23] = test system: OVCAR-4
[24] = test system: OVCAR-8
[25] = test system: Hs-578T
[26] = test system: SF-539
[27] = test system: PC-3
[28] = test system: HOP-62
[29] = test system: HT-29
[30] = test system: K562
[31] = test system: SK-MEL-2
[32] = test system: IGROV-1
[33] = test system: SW-620
[34] = test system: HOP-92
[35] = test system: HCT-116
[36] = test system: SNB-75
[37] = test system: HCC 2998
[38] = test system: SF-295
[39] = test system: SK-MEL-28
[40] = test system: HCT-15
[41] = test system: DU-145
[42] = test system: NCI-H226
[43] = test system: SNB-19
[44] = test system: 786-0
[45] = test system: TK-10
[46] = test system: ACHN
[47] = test system: SR
[48] = test system: U-251
[49] = test system: SN12C
[50] = test system: SK-MEL-5
[51] = test system: UACC-257
[52] = test system: COLO 205
[53] = test system: UACC-62
[54] = test system: MCF7
[55] = test system: MOLT-4
[56] = test system: A498
[57] = test system: LOX IMVI
[58] = test system: MDA-N

`O=C(CC(=O)N1N=C(N(c2ccccc2)c2ccccc2)CC1c1ccccc1)Nc1cccc(Cl)c1` (centres undefined) was tested, and the GI50 [1] was > 100 µM (inactive), the GI50 [2] was > 100 µM (inactive) and the GI50 [3] was > 100 µM (inactive). The GI50 [4] was > 100 µM (inactive), the GI50 [5] was > 100 µM (inactive) and the GI50 [6] was > 100 µM (inactive). For the same compound, the GI50 [7] was > 100 µM (inactive), the GI50 [8] was > 100 µM (inactive) and the GI50 [9] was > 100 µM (inactive). For the same compound, the GI50 [10] was > 100 µM (inactive), the GI50 [11] was > 100 µM (inactive) and the GI50 [12] was > 100 µM (inactive). The GI50 [13] was > 100 µM (inactive), the GI50 [14] was > 100 µM (inactive) and the GI50 [15] was > 100 µM (inactive). The GI50 [16] was > 100 µM (inactive), the GI50 [17] was > 100 µM (inactive) and the GI50 [18] was > 100 µM (inactive). The GI50 [19] was > 100 µM (inactive), the GI50 [20] was > 100 µM (inactive) and the GI50 [21] was > 100 µM (inactive). For the same compound, the GI50 [22] was > 100 µM (inactive), the GI50 [23] was > 100 µM (inactive) and the GI50 [24] was > 100 µM (inactive). For the same compound, the GI50 [25] was > 100 µM (inactive), the GI50 [26] was > 100 µM (inactive) and the GI50 [27] was > 100 µM (inactive). The GI50 [28] was > 100 µM (inactive), the GI50 [29] was > 100 µM (inactive) and the GI50 [30] was > 100 µM (inactive). The GI50 [31] was > 100 µM (inactive), the GI50 [32] was > 100 µM (inactive) and the GI50 [33] was > 100 µM (inactive). For the same compound, the GI50 [34] was > 100 µM (inactive), the GI50 [35] was > 100 µM (inactive) and the GI50 [36] was > 100 µM (inactive). For the same compound, the GI50 [37] was > 100 µM (inactive), the GI50 [38] was > 100 µM (inactive) and the GI50 [39] was > 100 µM (inactive). For the same compound, the GI50 [40] was > 100 µM, the GI50 [41] was > 100 µM (inactive) and the GI50 [42] was > 100 µM (inactive). For the same compound, the GI50 [43] was > 100 µM (inactive), the GI50 [44] was > 100 µM (inactive) and the GI50 [45] was > 100 µM (inactive). For the same compound, the GI50 [46] was > 100 µM (inactive), the GI50 [47] was > 100 µM (inactive) and the GI50 [48] was > 100 µM (inactive). For the same compound, the GI50 [49] was > 100 µM (inactive), the GI50 [50] was > 100 µM (inactive) and the GI50 [51] was > 100 µM (inactive). The GI50 [52] was > 100 µM (inactive), the GI50 [53] was > 100 µM (inactive) and the GI50 [54] was > 100 µM (inactive). For the same compound, the GI50 [55] was > 100 µM (inactive).

With `COc1cc2c3c(c1OC)C(=O)C(=O)C1=C3N(CCC1)CC2` the GI50 [1] was 34.8 µM (inactive), the GI50 [3] was 19.1 µM (inactive) and the GI50 [4] was 23.6 µM (inactive). For the same compound, the GI50 [5] was 26.4 µM (inactive), the GI50 [6] was 17.5 µM (inactive) and the GI50 [7] was 21.8 µM (inactive). For the same compound, the GI50 [8] was 19.7 µM (inactive), the GI50 [10] was 20.3 µM (inactive) and the GI50 [11] was 13.2 µM (inactive). The GI50 [12] was 22 µM (inactive), the GI50 [13] was 12.2 µM (inactive) and the GI50 [14] was 52.2 µM (inactive). The GI50 [15] was 20.6 µM (inactive), the GI50 [16] was 31.3 µM (inactive) and the GI50 [17] was 32.4 µM (inactive). The GI50 [18] was 41 µM (inactive), the GI50 [19] was 17 µM (inactive) and the GI50 [20] was 26.6 µM (inactive). For the same compound, the GI50 [21] was 23.2 µM (inactive), the GI50 [22] was 56 µM (inactive) and the GI50 [23] was 24.2 µM (inactive). The GI50 [24] was 21.5 µM (inactive), the GI50 [25] was 2.72 µM (inactive) and the GI50 [26] was 29.6 µM (inactive). For the same compound, the GI50 [27] was 31.5 µM (inactive), the GI50 [28] was 30.5 µM (inactive) and the GI50 [29] was 24.3 µM (inactive). The GI50 [30] was 5.7 µM (inactive), the GI50 [31] was 48.9 µM (inactive) and the GI50 [56] was 30.3 µM (inactive). For the same compound, the GI50 [32] was 28.7 µM (inactive), the GI50 [33] was 32.4 µM (inactive) and the GI50 [34] was 19.4 µM (inactive). For the same compound, the GI50 [35] was 18.5 µM (inactive), the GI50 [37] was 36.7 µM (inactive) and the GI50 [38] was 23.5 µM (inactive). The GI50 [39] was 36.9 µM (inactive), the GI50 [40] was 27.9 µM and the GI50 [41] was 38 µM (inactive). For the same compound, the GI50 [43] was 63.4 µM (inactive), the GI50 [44] was 43.4 µM (inactive) and the GI50 [45] was 70 µM (inactive). The GI50 [46] was 42.1 µM (inactive), the GI50 [47] was 18.5 µM (inactive) and the GI50 [48] was 15.5 µM (inactive). For the same compound, the GI50 [49] was 32.4 µM (inactive), the GI50 [50] was 33 µM (inactive) and the GI50 [51] was 28.6 µM (inactive). For the same compound, the GI50 [52] was 10.4 µM (inactive), the GI50 [53] was 18.1 µM (inactive) and the GI50 [57] was 26.7 µM (inactive). The GI50 [54] was 14.9 µM (inactive) and the GI50 [55] was 18.9 µM (inactive).

For `COc1cccc(/C=C2\S/C(=N/Nc3nc(C)c(C)s3)NC2=O)c1O`, the GI50 [1] was > 100 µM (inactive), the GI50 [2] was > 100 µM (inactive) and the GI50 [3] was 56.1 µM (inactive). The GI50 [4] was 87.1 µM (inactive), the GI50 [5] was > 100 µM (inactive) and the GI50 [6] was 37 µM (inactive). The GI50 [7] was > 100 µM (inactive), the GI50 [11] was > 100 µM (inactive) and the GI50 [12] was > 100 µM (inactive). For the same compound, the GI50 [13] was > 100 µM (inactive), the GI50 [14] was > 100 µM (inactive) and the GI50 [15] was > 100 µM (inactive). For the same compound, the GI50 [16] was > 100 µM (inactive), the GI50 [17] was > 100 µM (inactive) and the GI50 [18] was 74.1 µM (inactive). The GI50 [19] was > 100 µM (inactive), the GI50 [20] was 79.4 µM (inactive) and the GI50 [21] was 19 µM (inactive). The GI50 [22] was > 100 µM (inactive), the GI50 [23] was > 100 µM (inactive) and the GI50 [24] was 36.6 µM (inactive). The GI50 [26] was > 100 µM (inactive), the GI50 [28] was > 100 µM (inactive) and the GI50 [29] was > 100 µM (inactive). The GI50 [31] was > 100 µM (inactive), the GI50 [56] was > 100 µM (inactive) and the GI50 [32] was 34.3 µM (inactive). The GI50 [33] was > 100 µM (inactive), the GI50 [34] was > 100 µM (inactive) and the GI50 [35] was > 100 µM (inactive). The GI50 [36] was > 100 µM (inactive), the GI50 [37] was 61.5 µM (inactive) and the GI50 [38] was > 100 µM (inactive). The GI50 [39] was > 100 µM (inactive), the GI50 [40] was > 100 µM and the GI50 [41] was > 100 µM (inactive). The GI50 [58] was > 100 µM (inactive), the GI50 [42] was > 100 µM (inactive) and the GI50 [43] was > 100 µM (inactive). For the same compound, the GI50 [44] was > 100 µM (inactive), the GI50 [45] was > 100 µM (inactive) and the GI50 [46] was > 100 µM (inactive). For the same compound, the GI50 [48] was > 100 µM (inactive), the GI50 [49] was > 100 µM (inactive) and the GI50 [50] was 50.2 µM (inactive). The GI50 [51] was > 100 µM (inactive), the GI50 [52] was > 100 µM (inactive) and the GI50 [53] was 69.5 µM (inactive). For the same compound, the GI50 [57] was 95.7 µM (inactive), the GI50 [54] was > 100 µM (inactive) and the GI50 [55] was 49.3 µM (inactive).
